Results taken from ChEMBL document CHEMBL5303573, “Mapping human microbiome drug metabolism by gut bacteria and their genes” (Nature, 2019).

Columns and labels:
[1] = The drug is tested on Providencia rettgeri strain: DSM1131 for biotransformation. The drug concentrations were measured before and after a 12-h incubation by liquid-chromatography-coupled mass spectrometry (LC–MS); type: ADME; set-up: dose 2 uM, timepoint 0 vs 12 hours; conditions: 2 µM
[2] = bacteroides stercoris, 12 h, 2 µM
Description: The drug is tested on Bacteroides stercoris strain: ATCC43183 for biotransformation. The drug concentrations were measured before and after a 12-h incubation by liquid-chromatography-coupled mass spectrometry (LC–MS)

[3] = The drug is tested on Bacteroides dorei strain: DSM17855 for biotransformation. The drug concentrations were measured before and after a 12-h incubation by liquid-chromatography-coupled mass spectrometry (LC–MS); conditions: phocaeicola dorei, 2 µM
[4] = The drug is tested on Bacteroides ovatus strain: ATCC8483 for biotransformation. The drug concentrations were measured before and after a 12-h incubation by liquid-chromatography-coupled mass spectrometry (LC–MS); conditions: 2 µM
[5] = The drug is tested on Bacteroides vulgatus strain: ATCC8482 for biotransformation. The drug concentrations were measured before and after a 12-h incubation by liquid-chromatography-coupled mass spectrometry (LC–MS); conditions: phocaeicola vulgatus, 2 µM
[6] = The drug is tested on Blautia hansenii strain: DSM20583 for biotransformation. The drug concentrations were measured before and after a 12-h incubation by liquid-chromatography-coupled mass spectrometry (LC–MS); conditions: 2 µM
[7] = The drug is tested on Coprococcus comes strain: ATCC27758 for biotransformation. The drug concentrations were measured before and after a 12-h incubation by liquid-chromatography-coupled mass spectrometry (LC–MS); type: ADME; set-up: dose 2 uM, timepoint 0 vs 12 hours; conditions: 2 µM
[8] = The drug is tested on Collinsella intestinalis strain: DSM13280 for biotransformation. The drug concentrations were measured before and after a 12-h incubation by liquid-chromatography-coupled mass spectrometry (LC–MS); conditions: 2 µM
[9] = anaerostipes sp., 12 h, 2 µM
Description: The drug is tested on Anaerostipes sp. strain: fecal isolate for biotransformation. The drug concentrations were measured before and after a 12-h incubation by liquid-chromatography-coupled mass spectrometry (LC–MS)

[10] = bifidobacterium adolescentis, 12 h, 2 µM
Description: The drug is tested on Bifidobacterium adolescentis strain: ATCC 15703 for biotransformation. The drug concentrations were measured before and after a 12-h incubation by liquid-chromatography-coupled mass spectrometry (LC–MS)

[11] = The drug is tested on Anaerococcus hydrogenalis strain: DSM7454 for biotransformation. The drug concentrations were measured before and after a 12-h incubation by liquid-chromatography-coupled mass spectrometry (LC–MS); conditions: 2 µM
[12] = The drug is tested on Parabacteroides merdae strain: ATCC43184 for biotransformation. The drug concentrations were measured before and after a 12-h incubation by liquid-chromatography-coupled mass spectrometry (LC–MS); conditions: 2 µM
[13] = bacteroides fragilis, 12 h, 2 µM
Description: The drug is tested on Bacteroides fragilis strain: DS-208 for biotransformation. The drug concentrations were measured before and after a 12-h incubation by liquid-chromatography-coupled mass spectrometry (LC–MS)

[14] = bacteroides fragilis, 12 h, 2 µM; remark: listed apart in the source
Description: The drug is tested on Bacteroides fragilis strain: 3397 (T10) for biotransformation. The drug concentrations were measured before and after a 12-h incubation by liquid-chromatography-coupled mass spectrometry (LC–MS)

[15] = The drug is tested on Bacteroides fragilis strain: ATCC43859 for biotransformation. The drug concentrations were measured before and after a 12-h incubation by liquid-chromatography-coupled mass spectrometry (LC–MS); conditions: 2 µM
[16] = The drug is tested on Bacteroides coprophilus strain: DSM18228 for biotransformation. The drug concentrations were measured before and after a 12-h incubation by liquid-chromatography-coupled mass spectrometry (LC–MS); conditions: 2 µM
[17] = The drug is tested on Eubacterium hallii strain: DSM3353 for biotransformation. The drug concentrations were measured before and after a 12-h incubation by liquid-chromatography-coupled mass spectrometry (LC–MS); conditions: anaerobutyricum hallii, 2 µM
[18] = The drug is tested on Providencia stuartii strain: ATCC25827 for biotransformation. The drug concentrations were measured before and after a 12-h incubation by liquid-chromatography-coupled mass spectrometry (LC–MS); conditions: 2 µM
[19] = bacteroides fragilis, 12 h, 2 µM; remark: listed apart in the source
Description: The drug is tested on Bacteroides fragilis strain: NCTC 9343 for biotransformation. The drug concentrations were measured before and after a 12-h incubation by liquid-chromatography-coupled mass spectrometry (LC–MS)

SMILES	Bacterial Biotransformation [1]	Bacterial Biotransformation [2]	Bacterial Biotransformation [3]	Bacterial Biotransformation [4]	Bacterial Biotransformation [5]	Bacterial Biotransformation [6]	Bacterial Biotransformation [7]	Bacterial Biotransformation [8]	Bacterial Biotransformation [9]	Bacterial Biotransformation [10]	Bacterial Biotransformation [11]	Bacterial Biotransformation [12]	Bacterial Biotransformation [13]	Bacterial Biotransformation [14]	Bacterial Biotransformation [15]	Bacterial Biotransformation [16]	Bacterial Biotransformation [17]	Bacterial Biotransformation [18]	Bacterial Biotransformation [19]
COc1ccc2c3c1O[C@H]1C[C@@H](O)C=C[C@@]31CCN(C)C2 [GALANTAMINE]	Compound NOT metabolized	Compound NOT metabolized	Compound NOT metabolized	Compound metabolized	Compound metabolized	Compound NOT metabolized	Compound NOT metabolized	Compound NOT metabolized	Compound metabolized	Compound NOT metabolized	Compound NOT metabolized	Compound NOT metabolized	Compound metabolized	Compound metabolized	Compound metabolized	Compound metabolized	Compound NOT metabolized	–	–
CC(C)[C@H]1CC[C@H](C(=O)N[C@H](Cc2ccccc2)C(=O)O)CC1 [NATEGLINIDE]	Compound NOT metabolized	Compound NOT metabolized	–	Compound NOT metabolized	Compound metabolized	Compound NOT metabolized	Compound NOT metabolized	Compound NOT metabolized	Compound NOT metabolized	Compound NOT metabolized	Compound NOT metabolized	Compound NOT metabolized	Compound metabolized	Compound NOT metabolized	Compound metabolized	Compound NOT metabolized	Compound NOT metabolized	Compound NOT metabolized	–
Fc1ccc([C@@H]2CCNC[C@H]2COc2ccc3c(c2)OCO3)cc1 [PAROXETINE]	Compound NOT metabolized	Compound metabolized	–	Compound NOT metabolized	Compound NOT metabolized	Compound NOT metabolized	Compound NOT metabolized	Compound NOT metabolized	Compound metabolized	Compound NOT metabolized	Compound metabolized	Compound NOT metabolized	Compound NOT metabolized	Compound NOT metabolized	Compound NOT metabolized	Compound NOT metabolized	Compound NOT metabolized	Compound NOT metabolized	Compound NOT metabolized
